Measurements from patent US8785457B2 (Cellzome Limited, priority 2009, dated 2014).

How the values were obtained:
[1] = biological target: T1, DNA-dependent protein kinase (DNA-PK) (Homo sapiens, UniProt P78527); experiment: kinobeads assay, DNA-PK; assay type: binding; conditions: Further Kinobeads Data; read-out: DNAPK
T1 construct: endogenous in cells; host or cells: Jurkat, clone E6-1 (ATCC TIB-152) cell lysate
Procedure, shortened: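 Competitive binding in Jurkat cell lysate (5 mg/ml total protein): test compounds at various concentrations competed with beads bearing immobilized phenylmorpholin-chromen ligand. Bead-bound kinases were eluted and quantified by antibody dot blot with infrared detection; IC50 values came from dose-response curves.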

mTOR = biological target: T2, mTOR (Homo sapiens, UniProt P42345); experiment: mTOR kinobeads assay (competitive binding in Jurkat cell lysate, immunodetection); conditions: Further Kinobeads Data; read-out: mTor
T2 construct: endogenous in cells; host or cells: Jurkat, clone E6-1 (ATCC TIB-152) cell lysate
Procedure, shortened: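 IC50 derived from dose-response curves of mTOR captured on immobilized phenylmorpholin-chromen beads, detected by antibody dot blot with infrared fluorescence.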

T1 sequence (P78527 whole entry): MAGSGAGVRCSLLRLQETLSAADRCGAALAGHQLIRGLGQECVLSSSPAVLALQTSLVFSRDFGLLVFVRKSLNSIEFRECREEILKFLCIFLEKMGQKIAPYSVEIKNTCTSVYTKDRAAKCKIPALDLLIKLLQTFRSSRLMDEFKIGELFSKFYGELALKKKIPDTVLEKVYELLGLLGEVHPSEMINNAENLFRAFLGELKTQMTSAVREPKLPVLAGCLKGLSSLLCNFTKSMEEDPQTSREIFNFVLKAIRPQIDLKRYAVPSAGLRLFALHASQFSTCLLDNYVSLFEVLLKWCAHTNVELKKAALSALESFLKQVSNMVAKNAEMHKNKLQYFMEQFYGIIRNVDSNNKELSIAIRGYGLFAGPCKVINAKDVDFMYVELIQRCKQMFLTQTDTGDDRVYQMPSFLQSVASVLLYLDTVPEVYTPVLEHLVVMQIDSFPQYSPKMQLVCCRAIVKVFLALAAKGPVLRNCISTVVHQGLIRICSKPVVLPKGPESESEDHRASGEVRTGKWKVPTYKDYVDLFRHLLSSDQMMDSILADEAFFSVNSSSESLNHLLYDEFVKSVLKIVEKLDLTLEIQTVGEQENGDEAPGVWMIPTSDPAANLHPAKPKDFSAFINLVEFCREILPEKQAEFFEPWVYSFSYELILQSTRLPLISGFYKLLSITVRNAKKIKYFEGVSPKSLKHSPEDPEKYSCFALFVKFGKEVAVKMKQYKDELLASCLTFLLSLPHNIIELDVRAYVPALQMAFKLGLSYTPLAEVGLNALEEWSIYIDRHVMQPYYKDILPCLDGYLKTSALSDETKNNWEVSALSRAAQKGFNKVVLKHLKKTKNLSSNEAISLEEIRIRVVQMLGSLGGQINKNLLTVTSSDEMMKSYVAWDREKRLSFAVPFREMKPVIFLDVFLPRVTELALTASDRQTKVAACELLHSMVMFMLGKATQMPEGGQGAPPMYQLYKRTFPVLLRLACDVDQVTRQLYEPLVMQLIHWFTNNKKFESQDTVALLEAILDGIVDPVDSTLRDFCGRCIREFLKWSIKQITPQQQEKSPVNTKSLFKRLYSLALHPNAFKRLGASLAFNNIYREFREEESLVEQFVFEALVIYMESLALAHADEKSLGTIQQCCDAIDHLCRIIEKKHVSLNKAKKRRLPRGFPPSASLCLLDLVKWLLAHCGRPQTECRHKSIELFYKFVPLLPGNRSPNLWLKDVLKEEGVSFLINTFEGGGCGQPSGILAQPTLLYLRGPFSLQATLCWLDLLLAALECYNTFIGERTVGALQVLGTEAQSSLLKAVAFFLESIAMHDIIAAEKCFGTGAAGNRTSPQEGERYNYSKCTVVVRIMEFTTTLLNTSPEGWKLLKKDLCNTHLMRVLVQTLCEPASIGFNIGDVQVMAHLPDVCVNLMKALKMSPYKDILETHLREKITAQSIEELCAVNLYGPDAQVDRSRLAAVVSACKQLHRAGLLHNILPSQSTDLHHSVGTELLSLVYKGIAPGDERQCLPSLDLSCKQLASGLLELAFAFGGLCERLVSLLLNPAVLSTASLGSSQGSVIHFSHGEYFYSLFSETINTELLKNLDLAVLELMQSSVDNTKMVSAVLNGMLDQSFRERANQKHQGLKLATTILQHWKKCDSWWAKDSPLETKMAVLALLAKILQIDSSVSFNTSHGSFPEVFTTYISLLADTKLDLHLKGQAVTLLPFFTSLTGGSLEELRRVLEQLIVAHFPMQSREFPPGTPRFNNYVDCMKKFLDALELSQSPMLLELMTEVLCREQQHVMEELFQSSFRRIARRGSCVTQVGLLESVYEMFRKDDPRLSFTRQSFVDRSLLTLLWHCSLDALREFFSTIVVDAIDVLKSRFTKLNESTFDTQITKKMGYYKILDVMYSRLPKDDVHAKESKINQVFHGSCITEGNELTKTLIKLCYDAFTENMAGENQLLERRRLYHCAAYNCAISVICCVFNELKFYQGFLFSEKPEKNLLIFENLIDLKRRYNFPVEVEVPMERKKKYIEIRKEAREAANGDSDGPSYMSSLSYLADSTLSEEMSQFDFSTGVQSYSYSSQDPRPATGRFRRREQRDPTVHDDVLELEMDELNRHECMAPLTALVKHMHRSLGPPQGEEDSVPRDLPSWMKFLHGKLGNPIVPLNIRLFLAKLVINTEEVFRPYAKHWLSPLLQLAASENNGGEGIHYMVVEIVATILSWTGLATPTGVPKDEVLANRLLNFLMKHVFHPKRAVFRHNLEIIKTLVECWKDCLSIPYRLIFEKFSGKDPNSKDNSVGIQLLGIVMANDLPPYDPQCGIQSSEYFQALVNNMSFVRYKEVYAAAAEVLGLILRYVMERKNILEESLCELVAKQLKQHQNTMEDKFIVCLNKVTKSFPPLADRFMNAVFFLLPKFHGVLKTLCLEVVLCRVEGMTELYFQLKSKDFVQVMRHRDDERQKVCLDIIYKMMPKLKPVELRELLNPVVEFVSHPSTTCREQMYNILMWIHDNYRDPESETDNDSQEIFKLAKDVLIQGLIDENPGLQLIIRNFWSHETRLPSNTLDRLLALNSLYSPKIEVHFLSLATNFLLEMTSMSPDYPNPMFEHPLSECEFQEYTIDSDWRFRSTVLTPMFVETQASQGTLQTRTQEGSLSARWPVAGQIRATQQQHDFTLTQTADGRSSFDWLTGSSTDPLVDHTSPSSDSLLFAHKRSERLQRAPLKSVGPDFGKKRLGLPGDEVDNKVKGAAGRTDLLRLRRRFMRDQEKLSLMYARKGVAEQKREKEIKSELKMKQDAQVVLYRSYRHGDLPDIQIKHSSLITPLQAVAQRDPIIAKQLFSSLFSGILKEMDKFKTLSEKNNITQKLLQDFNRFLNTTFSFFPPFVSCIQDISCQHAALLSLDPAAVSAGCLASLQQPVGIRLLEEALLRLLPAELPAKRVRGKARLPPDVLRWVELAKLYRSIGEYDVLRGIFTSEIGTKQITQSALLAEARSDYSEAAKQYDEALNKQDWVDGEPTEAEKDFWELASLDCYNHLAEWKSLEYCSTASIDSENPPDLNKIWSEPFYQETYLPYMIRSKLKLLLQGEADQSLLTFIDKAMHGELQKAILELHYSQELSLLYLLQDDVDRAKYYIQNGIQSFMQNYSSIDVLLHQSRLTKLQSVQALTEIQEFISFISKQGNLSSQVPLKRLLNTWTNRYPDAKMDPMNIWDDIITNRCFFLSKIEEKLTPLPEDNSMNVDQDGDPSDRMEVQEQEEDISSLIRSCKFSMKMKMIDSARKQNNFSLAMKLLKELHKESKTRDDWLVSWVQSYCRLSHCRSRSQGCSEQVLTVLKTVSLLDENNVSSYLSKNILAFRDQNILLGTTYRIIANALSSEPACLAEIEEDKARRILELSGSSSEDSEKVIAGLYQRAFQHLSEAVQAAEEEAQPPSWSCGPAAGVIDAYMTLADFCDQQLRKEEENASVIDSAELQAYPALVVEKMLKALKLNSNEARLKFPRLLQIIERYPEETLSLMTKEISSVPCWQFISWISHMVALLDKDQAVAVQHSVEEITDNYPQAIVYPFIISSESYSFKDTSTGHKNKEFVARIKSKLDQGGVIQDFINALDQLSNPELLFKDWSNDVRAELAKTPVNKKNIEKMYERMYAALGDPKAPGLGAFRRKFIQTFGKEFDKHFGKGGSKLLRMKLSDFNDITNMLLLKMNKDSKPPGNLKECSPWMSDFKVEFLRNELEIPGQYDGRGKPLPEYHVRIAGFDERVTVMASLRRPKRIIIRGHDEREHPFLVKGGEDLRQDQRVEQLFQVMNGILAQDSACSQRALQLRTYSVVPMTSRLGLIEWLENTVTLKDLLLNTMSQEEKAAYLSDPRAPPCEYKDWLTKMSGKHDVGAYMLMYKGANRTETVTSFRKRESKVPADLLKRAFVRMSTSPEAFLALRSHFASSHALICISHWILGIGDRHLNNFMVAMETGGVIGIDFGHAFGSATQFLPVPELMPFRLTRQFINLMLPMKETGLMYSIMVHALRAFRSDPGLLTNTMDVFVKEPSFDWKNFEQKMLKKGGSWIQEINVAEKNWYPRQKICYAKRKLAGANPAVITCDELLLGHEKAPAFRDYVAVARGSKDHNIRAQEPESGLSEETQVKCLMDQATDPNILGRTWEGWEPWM

| IC50 [1] [µM] | IC50 (mTOR) [µM] | Compound |
| --- | --- | --- |
| > 10 | < 0.1 | COC(=O)N1Cc2nc(-c3ccc(NC(=O)NC4CC4)cc3F)nc(N3CCOCC3)c2C1 [Example 173, Methyl 2-(4-(3-cyclopropylureido)-2-fluorophenyl)-4-morpholino-5H-pyrrolo[3,4-d]pyrimidine-6(7H)-carboxylate] |
| > 10 | < 0.1 | CC(C)C(=O)N1Cc2nc(-c3ccc(NC(=O)NC4CC4)cc3F)nc(N3CCOC[C@@H]3C)c2C1 [Example 174, (S)-1-cyclopropyl-3-(3-fluoro-4-(6-isobutyryl-4-(3-methylmorpholino)-6,7-dihydro-5H-pyrrolo[3,4-d]pyrimidin-2-yl)phenyl)urea] |
| 1 to 10 | < 0.1 | CCNC(=O)Nc1ccc(-c2nc3c(c(N4CCOC[C@@H]4C)n2)CCN(C(=O)N(C)C)C3)c(F)c1 [Example 176, (S)-2-(4-(3-ethylureido)-2-fluorophenyl)-N,N-dimethyl-4-(3-methylmorpholino)-5,6-dihydropyrido[3,4-d]pyrimidine-7(8H)-carboxamide] |
| > 10 | < 0.1 | C[C@H]1COCCN1c1nc(-c2ccc(NC(=O)NC3CC3)cc2F)nc2c1CN(S(C)(=O)=O)C2 [Example 177, (S)-1-cyclopropyl-3-(3-fluoro-4-(4-(3-methylmorpholino)-6-(methylsulfonyl)-6,7-dihydro-5H-pyrrolo[3,4-d]pyrimidin-2-yl)phenyl)urea] |
| > 10 | 0.1 to 1 | C[C@H]1COCCN1c1nc(-c2ccc(NC(=O)NC3CC3)cc2F)nc2c1CN(C(=O)N(C)C)C2 [Example 178, (S)-2-(4-(3-cyclopropylureido)-2-fluorophenyl)-N,N-dimethyl-4-(3-methylmorpholino)-5H-pyrrolo[3,4-d]pyrimidine-6(7H)-carboxamide] |
| > 10 | < 0.1 | CCOC(=O)N1Cc2nc(-c3ccc(NC(=O)NC4CC4)cc3F)nc(N3CCOC[C@H]3C)c2C1 [Example 179, (R)-ethyl 2-(4-(3-cyclopropylureido)-2-fluorophenyl)-4-(3-methylmorpholino)-5H-pyrrolo[3,4-d]pyrimidine-6(7H)-carboxylate] |
| 1 to 10 | < 0.1 | COC(=O)N1Cc2nc(-c3ccc(NC(=O)NC4CC4)cc3F)nc(N3CCOC[C@H]3C)c2C1 [Example 180, (R)-methyl 2-(4-(3-cyclopropylureido)-2-fluorophenyl)-4-(3-methylmorpholino)-5H-pyrrolo[3,4-d]pyrimidine-6(7H)-carboxylate] |
| 1 to 10 | < 0.1 | COC(=O)N1Cc2nc(-c3ccc(NC(=O)NCCO)cc3F)nc(N3CCOC[C@@H]3C)c2C1 [Example 181, (S)-methyl 2-(2-fluoro-4-(3-(2-hydroxyethyl)ureido)phenyl)-4-(3-methylmorpholino)-5H-pyrrolo[3,4-d]pyrimidine-6(7H)-carboxylate] |
| > 10 | 0.1 to 1 | COC(=O)N1Cc2nc(-c3ccc(NC(=O)NCCF)cc3F)nc(N3CCOC[C@@H]3C)c2C1 [Example 183, (S)-methyl 2-(2-fluoro-4-(3-(2-fluoroethyl)ureido)phenyl)-4-(3-methylmorpholino)-5H-pyrrolo[3,4-d]pyrimidine-6(7H)-carboxylate] |
| > 10 | < 0.1 | CC(C)N1Cc2nc(-c3ccc(NC(=O)NCCF)cc3F)nc(N3CCOCC3)c2C1 [Example 185, 1-(3-fluoro-4-(6-isopropyl-4-morpholino-6,7-dihyro-5H-pyrrolo[3,4-d]pyrimidin-2-yl)phenyl)-3-(2-fluoroethyl)urea] |
| > 10 | < 0.1 | CC(C)N1Cc2nc(-c3ccc(NC(=O)NCCF)cc3F)nc(N3CCOC[C@@H]3C)c2C1 [Example 186, (S)-1-(3-fluoro-4-(6-isopropyl-4-(3-methylmorpholino)-6,7-dihydro-5H-pyrrolo[3,4-d]pyrimidin-2-yl)phenyl)-3-(2-fluoroethyl)urea] |
| > 10 | < 0.1 | CC(C)N1Cc2nc(-c3ccc(NC(=O)NCCO)cc3F)nc(N3CCOC[C@@H]3C)c2C1 [Example 187, (S)-1-(3-fluoro-4-(6-isopropyl-4-(3-methylmorpholino)-6,7-dihydro-5H-pyrrolo[3,4-d]pyrimidin-2-yl)phenyl)-3-(2-hydroxyethyl)urea] |
| > 10 | < 0.1 | C[C@@H]1COCCN1c1nc(-c2ccc(NC(=O)NC3CC3)cc2F)nc2c1CN(C(=O)C1CC1)C2 [Example 188, (R)-1-(4-(6-(cyclopropanecarbonyl)-4-(3-methylmorpholino)-6,7-dihydro-5H-pyrrolo[3,4-d]pyrimidin-2-yl)-3-fluorophenyl)-3-cyclopropylurea] |
| > 10 | < 0.1 | CC(C)NC(=O)N1CCc2c(nc(-c3ccc(NC(=O)NC4CC4)cc3F)nc2N2CCOC[C@@H]2C)C1 [Example 189, (S)-2-(4-(3-cyclopropylureido)-2-fluorophenyl)-N-isopropyl-4-(3-methylmorpholino)-5,6-dihydropyrido[3,4-d]pyrimidine-7(8H)-carboxamide] |
| > 10 | < 0.1 | C[C@@H]1COCCN1c1nc(-c2ccc(NC(=O)NC3CC3)cc2F)nc2c1CN(C=O)C2 [Example 190, (R)-1-cyclopropyl-3-(3-fluoro-4-(6-formyl-4-(3-methylmorpholino)-6,7-dihydro-5H-pyrrolo[3,4-d]pyrimidin-2-yl)phenyl)urea] |
| > 10 | 0.1 to 1 | C[C@@H]1COCCN1c1nc(-c2ccc(NC(=O)NC3CC3)cc2F)nc2c1CN(S(C)(=O)=O)C2 [Example 191, (R)-1-cyclopropyl-3-(3-fluoro-4-(4-(3-methylmorpholino)-6-(methylsulfonyl)-6,7-dihydro-5H-pyrrolo[3,4-d]pyrimidin-2-yl)phenyl)urea] |
